Results on two compounds are retold here after patent US20120003270A1, “6-SUBSTITUTED ISOFLAVONOID COMPOUNDS AND USES THEREOF” (priority 2008, published 2012).

One series relates to prostacyclin (PGI2). The experiment in a line: 6-keto PGF1α (prostacyclin) synthesis in IL-1β stimulated HUVECs (RIA). The following applies: overnight, mean+SEM, n=3. It counts as cell-based, human. The procedure: Cultured human umbilical vein endothelial cells (HUVECs—Vascular Biology Laboratory, Hanson Institute, Adelaide SA) were removed harvested in 0.25% trypsin-EDTA. After quenching and further washing in RPMI-10% FCS, the cells were resuspended in fresh medium at 1-1.5×10^5 cells per ml and plated out in gelatin coated wells at 2 ml per well. After incubation overnight in 5% CO2 at 37° C., the medium was refreshed and the cells returned to the incubator and allowed to equilibrate for approximately 2 h. Test compounds at concentrations of 0, 1, 10 or 100 μM were added to the cells, and 30 minutes later, stimulated by interleukin-1β (IL-1β-10 μl of a 2 ng/ml solution). After overnight incubation at 37° C., supernatants were collected by centrifugation at 2000 rpm for 5 min and stored at −20° C. Production of prostacyclin after overnight incubation was measured by radioimmunoassay (RIA). Because PGI2 is labile in aqueous medium, the stable hydrolysis product 6-keto PGF1α, was measured as a surrogate marker. Results are expressed as mean+SEM, n=3. Differences between means were analysed by one-way ANOVA followed by Tukey's test for multiple comparisons. Differences between means were regarded as significant when p<0.05.

Series [1] in a line: Pharmacokinetics after a single oral dose in mice. Format: in vivo, mouse. The following applies: serum; for half-life / AUC: mouse; for half-life: oral, 25 mg/kg, unconjugated, one phase exponential decay, read-out: t1/2 (free); for AUC: oral 25 mg/kg in PEG 400/PBS 1:1; for AUCfree/AUCtotal / [max]free (μM, mean ± SD): oral 25 mg/kg. The procedure:
The pharmacokinetic (PK) profiles of compounds (1) and (3) were examined following oral administration in PEG 400/PBS 1:1 at a dose of 25 mg/kg. For each experiment, three animals were allocated per time point (15 min, 30 min, 60 min, 90 min, 4 hr and 24 hr). Mice were killed using cervical dislocation and serum collected via cardiac puncture. Faeces and urine, where available, were also collected. Samples were stored at −80° C. and analysed by LC-MS in-house. The limit of detection was 20 ng/ml.
In Table 23 (and Table 24), “AUC” represents the area under the serum concentration versus time curve, expressed as μM*hour/L. This number assesses absorption and clearance in a relative way. The higher the number, the more compound has been absorbed and the longer it has remained in circulation. “AUCfree” refers to the area under the curve for unconjugated or free analogue, whereas “AUCtotal” refers to the area under the curve for the free and conjugated analogue combined.
“[max]” refers to the maximum concentration observed in serum. These measurements also give some understanding of how well a compound is absorbed.
The ratio of the AUCfree to the AUCtotal gives a relative measure of how much of the administered compound i.e. ‘free’ remains either in circulation compared to how much of the compound is conjugated.
“t1/2” is the half life, i.e. the time taken for the serum concentration to fall by half. The elimination of a drug is usually an exponential (logarithmic) process, so that a constant proportion is eliminated per unit time. […] The first refers to the t1/2 of the unconjugated analogue and the second the t1/2 of the total (free plus conjugated) analogue.

In series [2] the test system is neonatal fibroblast foreskin (NFF). Briefly: Toxicity in normal cells (MTT), NFF. Format: cell-based. To be noted: Homo sapiens, 120 h, 5 days, top concentration 150 μM, read-out: Normal cell viability IC50. The procedure:
Human neonatal fibroblast foreskin (NFF—a gift from Dr. Peter Parsons, Queensland Institute of Medical Research) or rabbit kidney (RK-13—a gift from Prof. Miller Whalley, Macquarie University) cells were seeded into 96 well plates and cultured in RPMI supplemented with 10% FCS (CSL, Australia), penicillin (100 U/ml), streptomycin ([…]), L-glutamine (2 mM) and sodium bicarbonate (1.2 g/L) at 37° C. and 5% CO2 for 24 hours until cells had attached and entered log phase of growth. Test compounds were added in serial two-fold dilutions from 150 μM in triplicate and incubated for a further 5 days. MTT was then added to each well, incubated for 3 hours at 37° C., after which the medium was tipped off. Following the addition of DMSO, the absorbance for each well was read on a plate reader. The assays were repeated at least twice.

The next series deals with 5-lipoxygenase (5-LO). Briefly: Synthesis of LTB4 and its metabolites in calcium ionophore-stimulated neutrophils (HPLC). The following applies: for IC50: Neutrophil, human neutrophils, calcium ionophore, read-out: IC50 for the production of LTB4. Format: cell-based, human. The protocol:
The pathway for LTB4 synthesis involves initial release of AA from phospholipids by a Ca-dependent PLA2. The free AA is then oxygenated at by 5-LO (requiring enzyme activation by FLAP) to generate an epoxide intermediate (LTA4). LTA4 is then converted to LTB4 by LTA4 hydrolase. LTB4 is metabolised (and deactivated) by a cytochrome P-(CYP) 450 […] to produce 20-hydroxy and 20-carboxy metabolites. These metabolites are also measured in the HPLC assay.
Neutrophils were isolated from citrated human venous blood to >90% purity by centrifugation through Ficoll, dextran sedimentation and lysis of erythrocytes (Boyum 1986). Cells were washed in HEPES buffered Hanks solution (HBHS) and then suspended at 4.5 million cells/mL in HBHS containing 0.1% BSA (HBHS+BSA).
Experiments had been carried out previously to optimise the stimulation of neutrophils by calcium ionophore. At 37° C., 900 μL of cell suspension (4 million cells) was incubated with 3′,7-dihydroxyisoflav-3-ene (or vehicle) in 10 μL DMSO for 5 min before addition of 100 μL of 25 ng/μL calcium ionophore (free acid form, Sigma) with 0.5% DMSO in HBHS containing 0.1% bovine serum albumin (HBHS+BSA). The cells were incubated for 10 min then pelleted by centrifugation at 1200× g at 4° C. for 5 min, and the cell free supernatant used to quantitate the levels of LTB4 and its metabolites.
To each 900 μL aliquot of the supernatant, 25 μL of 2.5 ng/μL prostaglandin B2 (PGB2) in ethanol was added as internal standard. The solution was acidified to […] with 2M formic acid and the mixture extracted with 2 mL ethyl acetate and vigorous vortexing. The organic layer was collected and dried under nitrogen in a glass vial before being reconstituted in 50 μL of the reconstitution solution (water:methanol:acetonitrile at 2:1:1).
Analysis was carried out using a HPLC system with a 125-4 LiChrospher®100 RP-18 (5 μm) column (Agilent Technologies) and a gradient system adapted from a published method (Mita et al. 1988) to separate LTB4, its oxidation products 20-hydroxy LTB4 (20-OH-LTB4) and 20-carboxy LTB4 (20-COOH-LTB4), as well as PGB2. At 1 ml/min flow rate, a combination of three different mobile phase solutions were used. UV absorbance was monitored at 270 nm, and LTB4 and its metabolites were quantitated by comparison of peak areas with that of internal standard and a standard curve prepared earlier.

As to `CN(C)Cc1cc2c(cc1O)OCC(c1ccc(O)cc1)=C2` [Compound (1)], the “PGF1α” value in the series on prostacyclin (PGI2) (1 μM) turned out to be 0.667 ± 0.088 pg/mL. For the same compound, the “PGF1α” value in the series on prostacyclin (PGI2) (10 μM) was 0.584 ± 0.059 pg/mL. Further, the “PGF1α” value in the series on prostacyclin (PGI2) (100 μM) is 0.277 ± 0.07 pg/mL. Besides, in series [1], the half-life is 9 min; the exposure (AUC) was 0.127 µM·h; the AUCfree/AUCtotal is recorded as 33%; the “[max]free (μM, mean ± SD)” value stood at 0.13 ± 0.1 µM. Further, in series [2], the IC50 amounted to 64.1 ± 9.6 µM. Moreover, in the series on 5-lipoxygenase (5-LO) (0.1 μM), the “20-COOH-LTB4, % of maximum release” value was found to be 82.0%; the “20-OH-LTB4, % of maximum release” value is listed as 95.2%; the “LTB4, % of maximum release” value is given as 94.3%. Moreover, in the series with 5-lipoxygenase (5-LO) (1 μM), the “20-COOH-LTB4, % of maximum release” value is reported as 99.6%; the “20-OH-LTB4, % of maximum release” value turned out to be 77.7%; the “LTB4, % of maximum release” value turned out to be 78.1%. For the same compound, in the series with 5-lipoxygenase (5-LO) (10 μM), the “20-COOH-LTB4, % of maximum release” value is on record as 0.0%; the “20-OH-LTB4, % of maximum release” value is listed as 0.0%; the “LTB4, % of maximum release” value is on record as 0.0%. Moreover, the IC50 in the series with 5-lipoxygenase (5-LO) was found to be 4.3 µM.
Turning to `O=C(O)C1CCCN1Cc1cc2c(cc1O)OCC(c1ccc(O)cc1)=C2` (stereo not drawn) [Compound (3)], in the series with prostacyclin (PGI2) (1 μM), the “PGF1α” value is 0.353 ± 0.045 pg/mL. The “PGF1α (pg/ml)” value with prostacyclin (PGI2) (10 μM) is on record as 0.335 ± 0.039^ pg/ml. Moreover, the “PGF1α” value in the series with prostacyclin (PGI2) (100 μM) was 0.308 ± 0.065 pg/mL. Besides, in series [1], the half-life amounted to 28 min; the AUC is 0.108 µM·h; the AUCfree/AUCtotal amounted to 12%; the “[max]free (μM, mean ± SD)” value was found to be 0.03 ± 0.01 µM. Also, the concentration for half-maximal inhibition (IC50) in series [2] worked out at 111 ± 67.1 µM. Moreover, in the series on 5-lipoxygenase (5-LO) (0.1 μM), the “20-COOH-LTB4, % of maximum release” value was 114.9%; the “20-OH-LTB4, % of maximum release” value came out at 82.8%; the “LTB4, % of maximum release” value was found to be 93.6%. Further, in the series on 5-lipoxygenase (5-LO) (1 μM), the “20-COOH-LTB4, % of maximum release” value is given as 105.7%; the “20-OH-LTB4, % of maximum release” value stood at 99.0%; the “LTB4, % of maximum release” value is listed as 97.0%. Moreover, in the series with 5-lipoxygenase (5-LO) (10 μM), the “20-COOH-LTB4, % of maximum release” value stood at 145.2%; the “20-OH-LTB4, % of maximum release” value turned out to be 6.1%; the “LTB4, % of maximum release” value is reported as 0.0%. In the series with 5-lipoxygenase (5-LO), the IC50 worked out at 5.4 µM.

For orientation: AUC means concentration integrated over time. Lower therefore signals less exposure. One may read the IC50 as the concentration needed to halve the response being measured.
